Columns and labels:
[1] = test system: Aspergillus endosomal development; settings: previously observed; cited from earlier work
A. flavus = type: cell-based, Aspergillus flavus

Row | Structure (SMILES) | minimal inhibitory concentration (MIC) for disruption of Aspergillus endosomal development [1] [µM] | aflatoxin levels compared to the filipin treated samples (A. flavus) | aflatoxin production compared to untreated control (A. flavus + the exemplary composition) (A. flavus)
1 | CCCCC[C@@H](O)[C@H]1C(=O)O[C@H](C)[C@@H](O)/C=C/C=C/C=C/C=C/C=C(\C)[C@@H](O)C[C@H](O)C[C@H](O)C[C@H](O)C[C@H](O)C[C@H](O)C[C@@H]1O [filipin] | 3 |  | 
2 | C[C@@H]1C/C=C/C=C/C=C/C=C/[C@H](O[C@@H]2O[C@H](C)[C@@H](O)[C@H](N)[C@@H]2O)C[C@@H]2O[C@](O)(C[C@@H](O)C[C@H]3O[C@@H]3/C=C/C(=O)O1)C[C@H](O)[C@H]2C(=O)O [natamycin] | 6 | significantly greater increase | increase aflatoxin production

From patent publication US20220249576A1 (priority 2021, published 2022)
